Measured values published in US20090142416A1, “Methods for the treatment of HIV and other viruses” (priority 2003, published 2009).
Entries after “also recorded” stand apart in the source; their conditions may differ. Read-outs that look alike come from different tables or passages of the source.

Experiments:
[1] = test system: murine leukemia virus (MULV); conditions: for survival rate at 21 days / post-treatment CD4/CD8 ratio: 72 feet; for survival rate at 21 days: 2 hours daily; for survival rate at 21 days / mice that died during the treatment period: 12 mice per group; for post-treatment CD4/CD8 ratio / post-treatment CD4 count (FACS): 2 hours, versus post-treatment control; for post-treatment CD4/CD8 ratio: six days a week, three weeks; for hypocellular medullary sinuses of lymph nodes: H&E histology after three-week treatment; for lymph node architecture: after 21 days of treatment; for spleen size / lymph node size: after three-week treatment; for spleen size: N2 and air versus control and oxygen; for lymph node size: area = length times width of cut node; for post-treatment CD4 count (FACS): orbital blood, 72 feet of seawater, six days a week for three weeks; for physical condition / grooming: versus control and oxygen groups; for mice that died during the treatment period: days 6 and 14; for overall effect relative to control conditions: 72 ft for 2 hours, 6 days per week
Protocol: FIG. 5A represents the cross section of an actual lymph node removed from a mouse that took part in a study of the present method. […] As a result of the observations on divers in Puerto Rico, it was decided to first test this concept in murine leukemia virus-MULV mice exposed to increased pressures of nitrogen at a depth of 72 feet for 2 hours 6 days per week for 3 weeks. […] The murine model, AKR-J strain of mice which are viremic from birth, were used to test the hypotheses. The animal model was chosen because of its striking similarities to human AIDS. […] The mice were separated at random into four groups of 12 mice in each group. Group 1 was control. Group 2 was exposed to air at sea level pressure. Group 3 was exposed to N2 and Group 4 to O2 under the following conditions. The mice were placed in a small (5.88 cubic feet), temperature controlled hyperbaric chamber and compressed with Air, N2+6.5% O2 or 100% O2. Groups were taken separately to a pressure of 72 feet of seawater. The animals reached maximum treatment pressure in 6-7 minutes and remained at this pressure for 2 hours. They were then returned to normal barometric pressure at a rate of one foot per minute (72 minutes). This process was performed each day for six days a week for three weeks. The control group of animals (Group 1) was exposed to normal surface conditions for the same period of time.
Cytological and histological measurements. Pre- and post-flow cytometry (FACS) analysis was performed on samples of orbital blood from 10 animals in each group labeled with anti-mouse CD4/CD8 fluorescence markers. Animals were anesthetized using methoxyflurane and blood was collected with a heparinized Pasteur pipette. Lymphocytes were stained with anti CD4-PE and anti CD8-FITC (Pharmingen) for 15 minutes. Erythrocytes were hemolyzed in lysis solution (Becton Dickinson) for 10 minutes, washed with PBS/azide solution, centrifuged and the supernatant was discarded. The pellet was fixed with 1% formalin in PBS, and stored at 4° C. until cytometry (Becton Dickinson FACS Scan; San Jose, Calif.). At the end of the three-week treatment period, blood samples were obtained and the mice were sacrificed. The lymph nodes, spleen, thymus, liver and brain tissue were collected immediately placed in 10% formalin. Following fixation and routine paraffin processing, 4 μm sections of lymph nodes were obtained after cutting randomly selected nodes through the center parallel to the long axis of the node. The slides were stained with hematoxylin and eosin (H&E) and reviewed by a pathologist that was blinded to knowledge of animal treatment groups. The presence of secondary follicles and paracortical expansion were quantitated for each animal as a percentage of lymph nodes. As medullary sinuses were not present in every lymph node profile, the presence of medullary sinus hypocellularity was quantitated as a percentage of lymph nodes which contained sinuses. In addition the approximate surface area of the cut node was computed from the product of the length and width in its maximum dimensions. The remaining tissues were examined qualitatively for pathological changes.
FIG. 6 is bar chart showing the average size of lymph nodes taken from the mice of different groups in the study discussed above. The lymph nodes were taken from the cervical, thoracic, and abdominal regions and fixed in 10% formalin. The nodes were then sectioned through the center of the long axis, and area was computed as the product of length times width.

[2] = cited from earlier work
[3] = listed as Mixtures with enriched nitrogen

N#N [N2, nitrogen]
survival rate at 21 days [1]: 100% | post-treatment CD4/CD8 ratio [1]: significantly higher | post-treatment CD4/CD8 ratio [1, 3]: increased | hypocellular medullary sinuses of lymph nodes [1]: significantly more hypocellular sinuses were present in the control group and the O2 group than in the N2 and Air groups; also recorded: significant differences in sinus cellularity | lymph node architecture [1]: improved lymph node architecture | lymph node architecture [1, 3]: preserved | spleen size [1]: smaller by about one third | lymph node size [1]: smaller | lymph node size ([1]; listed as hyperbaric N2): significantly attenuated the lymphadenopathy | lymph node size ([1]; listed as nitrogen): significant reduction | number of nodes with paracortical expansion ([1]; lymph node histology): reduction | number of nodes with secondary follicles ([1]; lymph node histology): reduction | number of sinuses with histiocytes ([1]; lymph node histology): increase | post-treatment CD4 count (FACS) [1]: increased and were significantly higher than post-treatment CD4 count in control animals | post-treatment CD4 count (FACS) ([1]; listed as hyperbaric N2): improved CD4 counts | physical condition / grooming [1]: better grooming | physical condition / grooming [1, 3]: improved | physical condition / grooming ([1]; listed as nitrogen): appeared physically more healthy; also recorded: improved physical condition

[N-]=[N+]=O [nitrous oxide]
anesthetic effect ([2]; 90% N2O and 10% O2 at atmospheric pressure (760 mmHg)): many subjects do not even lose consciousness | anesthetic effect ([2]; 1520 mmHg or 2 atmospheres absolute (1368 mmHg N2O+125 mmHg oxygen)): deep anesthesia

O=O [O2, oxygen, reference compound]
mice that died during the treatment period [1]: Two | mice that died during the treatment period ([1]; listed as oxygen): two | survival rate at 21 days [1]: 83% | post-treatment CD4/CD8 ratio [1]: significantly lower | post-treatment CD4/CD8 ratio ([1]; listed as hyperbaric oxygen): significantly decreased | post-treatment CD4/CD8 ratio ([1]; listed as oxygen): significantly lower | overall effect relative to control conditions ([1]; listed as Oxygen): significant negative effect | overall effect relative to control conditions ([1]; listed as hyperbaric oxygen): no beneficial effect | overall effect relative to control conditions ([1]; listed as oxygen): fared worse than the control group | hypocellular medullary sinuses of lymph nodes [1]: significantly more hypocellular sinuses | spleen size [1]: much bigger | lymph node size [1]: much bigger | post-treatment CD4 count (FACS) ([1]; listed as hyperbaric oxygen): significantly decreased
